Assay results: article PMC6695845 (Molecules, 2019)
“And” between values parts separate entries of the source, which are not always exact repeats. Identical values can stand only once. Counter-ions that a name gives are not always drawn. Like-named read-outs stand apart in the source and are kept apart here.

Legend:
human α4β2 nAChR [1] = target: T1, human α4β2 nAChR (Homo sapiens, UniProt P17787+P43681); assay: [3H]cytisine competition binding on membrane homogenates of SH-EP-hα4β2 clonal cells; parameters: expressed in transfected cells; conditions: mean ± SEM of four experiments
Experimental: First, we determined the half maximal inhibitory concentration (IC50) of the synthesized molecules for human α4β2 nAChR using [^3H]-cytisine ([^3H-Cyt]) as a radioligand. It is well known that [^3H-Cyt] binds to the agonist (orthosteric) site of α4β2 nACRs.
Figure 4 Effects of phenylpyrrolidine derivatives on binding of [^3H]cytisine to human α4β2 nAChRs. Data points represent the mean ± SEM of four experiments. Each experiment was carried out in triplicate. The radioligand concentration in all displacement studies was 1 nM. The concentration-inhibition data was analyzed non-linearly.
Membrane homogenates for [^3H]-Cyt binding studies were prepared from the SH-EP-h α4β2 clonal cell line, which express human α4β2 nAChRs. Cells were maintained in Dulbecco’s modified Eagle’s medium (Invitrogen, UK) supplemented with 5% fetal serum, 10% horse serum, 2 mM L-glutamine, 10 IU/mL penicillin, 10 μg/mL streptomycin, 2.5 μg/mL amphotericin-B, 0.25 mg/mL zeocin, and 0.13 mg/mL hygromycin.
Competition binding studies were performed on membrane homogenates prepared SH-EP-hα4β2 clonal cell line, using [^3H]cyt (PerkinElmer, UK), as previously described. Membrane homogenates were incubated at a final protein concentration of 30 to 50 µg per assay tube in a final volume of 250 µL of binding saline ([…]: 120 NaCl, 5 KCl, 1 MgCl2, 2.5 CaCl2, 50 Tris, pH 7.0) for 75 min at 4 °C with 1 nM [^3H]cyt. […] Bound and free fractions were separated by rapid filtration through Whatman GF/C filters presoaked in binding saline supplemented with 0.1% polyethyleneimine. Radioactivity was quantified by liquid scintillation spectrometry.

human α4β2 nAChR [2] = target: T1, human α4β2 nAChR; assay: two-electrode voltage clamp on human α4β2 nAChR expressed in Xenopus laevis oocytes; format: cell-based; parameters: expressed in transfected cells; host or cells: Xenopus laevis oocytes (nuclear cDNA injection); conditions: for agonist profile at human α4β2 nAChR: in words; for Imax: maximal current normalized to response to 1 mM ACh, mean ± SEM; for Emax: read-out: maximal response (efficacy) as % of the ACh Imax
Experimental: The functional effects of our compounds were tested on α4β2 nAChR heterologously expressed in Xenopus laevis oocytes. Experiments were carried out by using the two-electrode voltage clamp procedure.
Figure 5 Interaction of phenylpyrrolidine derivatives with human α4β2 nicotinic receptors expressed in Xenopus laevis oocytes. Whole cell currents in response to agonist application were measured by a two-electrode voltage clamp. Concentration-response curves show activation of whole cell currents by compounds 1, 2, 3, and 4. Each point represents data from four to five cells, normalized to the amplitude of the maximal responses of ACh, which was stimulated by 1 mM of ACh. The data are fitted to a single component Hill curve.
The α4β2 nAChRs (wild type) were expressed heterologously in defolliculated oocytes from Xenopus laevis, which were dissected from adult female X. laevis frogs (Nasco, Fort Atkinson, WI, USA). The Oxford Brookes University Animal Research Committee, in accordance with the guidelines of the 1986 Scientific Procedures Act of the United Kingdom, approved the care and use of X. laevis frogs in this study. A mixture of 1:1 of human of α4 and β2 subunits for α4β2 subtype cDNAs were injected into the nuclei of oocytes in a volume of 23 nL/oocyte by using a Nanoject Automatic Oocyte Injector (Drummond Scientific, Broomall, PA, USA). After injection, oocytes were incubated at 17 °C in OPS (NaCl, KCl, CaCl2, MgCl2, pH 7.4) supplemented with a mixture of penicillin-streptomycin-anphotericin-B (10,000 IU/mL penicillin, 10 mg/mL streptomycin, and 25 µg amphotericin-B/mL) and amikacin (100 µg/mL). Experiments were performed on oocytes 2 to 6 days after injection.
Electrophysiological recording from oocyte post-injection was made at room temperature using a standard two electrode voltage clamp technique with an automatic multichannel system (HiClamp, Multichannel Systems, Reutlingen, Germany). Oocytes were impaled by two borosilicate capillary glass (Harvard Instrument: 150 TF GC) microelectrodes filled with 3 M KCl (0.3–2.0 MΩ) and voltage-clamped at −60 mV. During recording, oocytes were perfused with OPS (oocytes perfusion solution), as described in the manual of HiClamp. Agonist responses were normalized to the amplitude of the responses induced by 1 mM ACh, which is the maximal ACh concentration at α4β2 nAChRs. Between each successive ACh or compound application, the cell was perfused with OPS solution for 3 min to allow drug clearance and prevent receptor desensitization.

human α4β2 nAChR [3] = target: T1, human α4β2 nAChR; conditions: nicotine, included for comparison, no SEM, not in Figure 5; cited from earlier work
[4] = displacement of 1 nM [3H]cytisine, read-out: α4β2 IC50
[5] = Xenopus laevis oocytes, -60 mV, mean ± SEM of four to five experiments, read-out: α4β2 EC50
[6] = relative to 1 mM ACh, Xenopus laevis oocytes

CN1CCC[C@H]1COc1cccc(N)c1 (as salt: hydrochloride) [Compound 2, (S)-1-methyl-2-(3′-aminophenoxymethyl)pyrrolidine Ether]
melting point: 198 to 200 °C

CN1CCC[C@H]1COc1ccccc1 [Compound 1, (S)-1-methyl-2-(phenoxymethyl)pyrrolidine Ether]
IC50 (human α4β2 nAChR [1]; [4]): 204 ± 6 nM
EC50 (human α4β2 nAChR [2]; [5]): 68800 ± 1300 nM
agonist profile at human α4β2 nAChR (human α4β2 nAChR [2]; Xenopus laevis oocytes): partial agonist

CN1CCC[C@H]1COc1cccc(N)c1 [Compound 2, (S)-1-methyl-2-(3′-aminophenoxymethyl)pyrrolidine Ether]
IC50 (human α4β2 nAChR [1]; [4]): 13 nM and 13.8 nM
EC50 (human α4β2 nAChR [2]; [5]): 10800 ± 700 nM
agonist profile at human α4β2 nAChR (human α4β2 nAChR [2]; Xenopus laevis oocytes): full agonist
fold more potent than compound 1 (EC50) (human α4β2 nAChR [2]; Xenopus laevis oocytes, ratio of EC50 values): about seven-fold
Imax (human α4β2 nAChR [2]; Xenopus laevis oocytes): 1.00 ± 0.01
Emax (human α4β2 nAChR [2]; [6]): 100%

CN1CCC[C@H]1COc1cccc(Cl)c1 [Compound 3, (S)-1-methyl-2-(3′-Chlorophenoxymethyl)pyrrolidine Ether]
IC50 (human α4β2 nAChR [1]; [4]): 221 ± 10 nM
EC50 (human α4β2 nAChR [2]; [5]): 63300 ± 2100 nM
agonist profile at human α4β2 nAChR (human α4β2 nAChR [2]; Xenopus laevis oocytes): partial agonist
Imax (human α4β2 nAChR [2]; Xenopus laevis oocytes): 0.29 ± 0.01
Emax (human α4β2 nAChR [2]; [6]): 29%

CN1CCC[C@H]1COc1cccc(Br)c1 [Compound 4, (S)-1-methyl-2-(3′-bromophenoxymethyl)pyrrolidine Ether]
IC50 (human α4β2 nAChR [1]; α4β2 IC50, displacement of 1 nM [3H]cytisine): 188 ± 7 nM
EC50 (human α4β2 nAChR [2]): 56700 ± 1700 nM
agonist profile at human α4β2 nAChR (human α4β2 nAChR [2]; Xenopus laevis oocytes): partial agonist
Imax (human α4β2 nAChR [2]; Xenopus laevis oocytes): 0.13 ± 0.01
Emax (human α4β2 nAChR [2]): 13%

CN1CCC[C@H]1c1cccnc1 [Nicotine]
Imax (human α4β2 nAChR [3]): 1.00
